Measured values from patent publication US20230131501A1, “THERAPEUTIC USES OF INHIBITORS OF THE RNA-BINDING PROTEIN HuR” (University of Kansas, priority 2020, published 2023).

Legend:
[1] = test system: panel of cancer cell lines; experiment: Cytotoxicity assay, expanded panel of cell lines; format: cell-based
Description: (§1) The cytotoxicity of the tested compounds in several cancer cell lines (HCT116 β/w, MIAPaCa-2, and MDA-MB-231) was determined by a cytotoxicity assay, where the results are provided in Table 1. Cells were seeded in 96-well culture plates (5,000 cells/well) and treated with titrated compounds in triplicate. After 96 h incubation, cell growth medium was removed and proliferation reagent WST-8 (Sigma) was added to each well and incubated at 37° C. for 1-3 h. Absorbance was then measured with a plate reader at 450 nm with correction at 650 nm. The results were expressed as the percentage of absorbance of treated wells versus that of vehicle control. IC50, the drug concentration causing 50% growth inhibition, was calculated via sigmoid curve fitting using GraphPad Prism 5.0.
(§2) The assay was then utilized to assess cytotoxicity of KH-3 against an expanded panel of cell lines (including normal cell line WI-38), where FIGS. 4A-4C provide the results.

[2] = test system: MIAPaCa-2; experiment: Cytotoxicity assay (WST-8); format: cell-based; conditions: Homo sapiens, MIA PaCa-2, 96 h incubation
Description: (§3) Cells were seeded in 96-well culture plates (5,000 cells/well) and treated with titrated compounds in triplicate. After 96 h incubation, cell growth medium was removed and proliferation reagent WST-8 (Sigma) was added to each well and incubated at 37° C. for 1-3 h. Absorbance was then measured with a plate reader at 450 nm with correction at 650 nm. The results were expressed as the percentage of absorbance of treated wells versus that of vehicle control.

[3] = test system: HCT116 β/w; experiment: Cytotoxicity assay (WST-8); format: cell-based; conditions: Homo sapiens, HCT-116, 96 h incubation
Description: as §3

[4] = test system: hTERT-HPNE (non-cancerous human pancreatic ductal epithelial cell line); experiment: MTT cell viability, non-cancerous cells; format: cell-based; conditions: 48 hours
Description: (§4) Pancreatic cancer cell lines were obtained from the American Type Culture Collection (Manassas, Va.). hTERT-HPNE cells (immortalized human pancreatic ductal epithelial cells) were donated by Dr. Anant at the University of Kansas Medical Center. MTT assay was used for cell viability detection, with starting cell number in 96-well plate of 3000/well (for 72 h treatment) or 5000/well (for 48 h treatment).
(§5) Pancreatic cancer cell lines with different endogenous HuR expression levels were treated with serial concentrations of KH-3 for 48 hours. KH-3 induced cytotoxicity in pancreatic cancer cells, with the sensitivity correlated to endogenous HuR protein levels (FIG. 30). MIA PaCa2 cells have the highest HuR protein abundance among the tested cell lines and were the most sensitive to HuR treatment (IC50=5 μM). […] BxPC-3 cells, another human pancreatic cancer cell line, have HuR expression level in the middle, and the IC50 of KH-3 was in the middle (10 μM). A non-cancerous human pancreatic ductal epithelial cell line (hTERT-HPNE) was tested under the same conditions. hTERT-HPEN cells have the lowest abundance of HuR protein compared to the cancer cells, and the cytotoxicity of KH-3 to these cells were minimal (IC50>>40 μM). There is an inverse correlation in the tested cell lines between the HuR expression levels and the sensitivity to KH-3 treatment (FIG. 30) (R=−0.71 by Pearson Tests).

[5] = target: T1, HuR protein bound to Msi1-Bi (Homo sapiens, UniProt Q15717); experiment: Pull-down assay #1, RNA immunoprecipitation with biotinylated Msi1 ARE oligo; format: cell-based; conditions: cytoplasmic lysates of treated cells with HuR overexpression
T1 construct: endogenous in cells
T1 sequence (Q15717 2-326 limits assumed): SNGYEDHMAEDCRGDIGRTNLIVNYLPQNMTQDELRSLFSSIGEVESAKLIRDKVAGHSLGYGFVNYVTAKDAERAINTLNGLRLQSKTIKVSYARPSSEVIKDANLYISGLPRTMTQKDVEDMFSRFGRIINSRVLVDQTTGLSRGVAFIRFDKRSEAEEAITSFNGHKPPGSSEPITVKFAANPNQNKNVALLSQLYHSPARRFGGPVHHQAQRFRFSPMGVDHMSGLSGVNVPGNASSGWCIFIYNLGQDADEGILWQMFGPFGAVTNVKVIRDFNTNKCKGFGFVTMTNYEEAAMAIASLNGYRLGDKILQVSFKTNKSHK
Description: Cells with HuR overexpression were treated with compounds, then the cell cytoplasmic lysates were collected using NE-PER Nuclear and Cytoplasmic Extraction Kit (Thermo Scientific), and subsequently to the cell cytoplasmic lysates were added the biotinylated target ARE oligo from Msi1 mRNA (Msi1-Bi). Following this, streptavidin beads were added to pull down HuR protein bound to Msi1-Bi. Compounds of the present technology blocked the HuR pull-down by the biotinylated ARE oligo, illustrating inhibition of the Hur-mRNA interaction. Unlabeled target AREs were used as positive control. FIG. 6A provides results with KH-3, illustrating KH-3 blocked Msi1-Bi RNA mediated pull-down of HuR protein up to 24%.

[6] = test system: normal cell line WI-38; experiment: Cytotoxicity assay, normal cell line; format: cell-based
Description: as §1, §2

[7] = target: T2, HuR protein interaction with the ARE site of Msi1 mRNA (HuR-Msi1^ARE) (Homo sapiens, UniProt Q15717); experiment: Fluorescence polarization (FP) assay, inhibition of HuR-Msi1 ARE interaction; format: binding; conditions: full-length human HuR, read-out: Ki via FP assay
T2 construct: full-length human HuR protein was produced by the KU COBRE-PSF Protein Purification Group; made in house
T2 sequence (Q15717 whole entry): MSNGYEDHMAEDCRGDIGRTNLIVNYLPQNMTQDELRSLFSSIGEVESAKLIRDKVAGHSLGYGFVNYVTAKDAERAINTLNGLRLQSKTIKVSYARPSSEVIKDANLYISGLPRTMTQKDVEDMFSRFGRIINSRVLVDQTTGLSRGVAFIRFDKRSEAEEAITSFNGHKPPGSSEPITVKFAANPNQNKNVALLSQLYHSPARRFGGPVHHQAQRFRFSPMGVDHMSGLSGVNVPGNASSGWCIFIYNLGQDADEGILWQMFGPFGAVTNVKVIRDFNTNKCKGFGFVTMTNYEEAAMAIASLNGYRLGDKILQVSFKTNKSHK
Source text: A fluorescence polarization (FP)-based binding assay was utilized to assess the inhibition of HuR protein interaction with the ARE site of Msi1 mRNA (“HuR-Msi1^ARE”) by compounds of interest. Briefly, full-length human HuR protein was produced by the KU COBRE-PSF Protein Purification Group and Bcl2, Msi1 and XIAP mRNA sequences (16 nt) were designed based on literature precedent^23,24,31,32. Fluorescein labeled RNAs were purchased from Dharmacon with the following sequences: Msi1 RNA: 5′-GCUUUUAUUUAUUUUG-3′-fluorescein; Bcl-2 RNA: 5′-AAAAGAUUUAUUUAUU-3′-fluorescein; XIAP RNA: 5′-UAGUUAUUUUUA UGUC-3′-fluorescein, and a 16-nt degenerative RNA with 3′-fluorescein label was used as a negative control.

[8] = test system: PANC-1 cells; experiment: MTT cell viability; format: cell-based; conditions: Homo sapiens; PANC-1, 48 hours
Description: as §4, §5

[9] = test system: MIA PaCa2 cells; experiment: MTT cell viability; format: cell-based; conditions: Homo sapiens, MIA PaCa-2; MIA PaCa2, 48 hours
Description: as §4, §5

[10] = test system: BxPC-3 cells; experiment: MTT cell viability; format: cell-based; conditions: Homo sapiens; BxPC-3, 48 hours
Description: as §4, §5

Compound: CC(C)(C)c1ccc(S(=O)(=O)Nc2ccc3sc(/C=C/C(=O)NO)cc3c2)cc1 [KH-3]
- cytotoxicity across a panel of cancer cell lines [1]: potent cytotoxicity
- IC50 [2]: 4.5 µM
- IC50 [3]: 3.6 µM
- IC50 [4]: > 40 µM
- blocking of Msi1-Bi RNA mediated pull-down of HuR protein [5]: up to 24%
- concentration until which not cytotoxic [6]: about 100 μM
- Ki [7]: 0.81 µM
- IC50 [8]: 25 µM
- IC50 [9]: 5 µM
- IC50 [10]: 10 µM
